Consider three molecules from US6716613B1, “Metalloprotease having aggrecanase activity” (Yamanouchi Pharmaceutical Co., Ltd., priority 1999, dated 2004).

This assay has as its system rabbit knee joint cartilage primary culture cells. In words: Proteoglycan degradation/release in rabbit knee joint cartilage primary culture cells (35S label). Type of assay: cell-based. Particulars: compound added just before stimulation with 10 μM of all-trans retinoic acid; for IC50: Oryctolagus cuniculus, read-out: proteoglycan degradation inhibition action (IC50). Here is the method:
After killing a rabbit (Japanese white species, male, 1.0 to 1.5 kg) under excess anesthesia, a knee joint was excised and the cartilage layer on the joint surface was removed and finely cut using a surgical knife. The cut pieces were treated with trypsin-EDTA (0.25%-1 mM; mfd. by GIBCO-BRL) at 37° C. for 1 hour and then centrifuged at 1,500 rpm for 5 minutes, and the resulting precipitate was washed with DMEM. This was treated with collagenase A (0.15%; Boehringer-Mannheim)/DMEM at 37° C. for 3 to 4 hours, and then a nylon mesh filter (100 μm, mfd. by Falcon)-passed fraction was centrifuged at 1,500 rpm for 5 minutes to effect precipitation of cartilage cells. The cells were thoroughly washed with DMEM/10% FBS medium, suspended in DMEM/10% FBS medium to a density of 2×10^5 cells/ml and then inoculated in 200 μl/well portions into an I type collagen-coated 96 well plate (mfd. by Asahi Technoglass). Three days thereafter, the medium was changed to 200 μof DMEM/10% FBS medium containing 50 μg/ml of ascorbic acid (ascorbic acid medium hereinafter), and the culturing was continued for 3 days. When an I type collagen-coated 6 well plate (Asahi Technoglass) was used, the cell suspension was inoculated in 6 ml/well portions and cultured by carrying out the same medium exchange. These cells were used in the following test.
The rabbit knee joint cartilage primary culture cells of 96 well plate described in Example 11-1 were cultured for 2 days using 200 μl of the ascorbic acid medium supplemented with 10 μCi/ml in final concentration of Na2^35SO4 and labeled therewith, washed 3 times with 200 μl of the ascorbic acid medium and then cultured for 1 day using 200 μl of the ascorbic acid medium. After stimulation with IL-1β or all-trans retinoic acid and subsequent 0, 24, and 48 hours of culturing, the culture supernatants were recovered in 20 μl portions, and the radioactivity was measured using Top Count (mfd. by Packard).
Each of the compounds A, B, C and D selected by the screening system of Example 10-2 was added to the proteoglycan degradation system of rabbit knee joint cartilage primary culture cells just before the stimulation with 10 μM of all-trans retinoic acid, and their proteoglycan degradation inhibitory activities were examined.

SMILES strings stand for the structures.

Turning to `CNC(=O)C(Cc1ccc(OC)cc1)NC(=O)C(CC(C)C)C(CS)C(=O)NO` (stereo not drawn) [compound A, N-^α-[2-(1-hydroxycarbamoyl-2-sulfanylethyl)-4-methylpentanoyl]-N,O-dimethyltyrosineamide], the “inhibition of proteoglycan degradation (in words, FIG. 8)” value is on record as “inhibition of proteoglycan degradation in a concentration-dependent manner”.

In the case of `CNC(=O)[C@H](Cc1ccc(OC)cc1)NC(=O)C(CC(C)C)C(CSc1ccccc1)C(=O)NO` (stereo partly drawn) [compound C, N^α-[2-(1-hydroxycarbamoyl-2-phenylsulfanylethyl)-4-methylpentanoyl]-N,O-dimethyltyrosineamide], the IC50 (commonly the point on the concentration scale where inhibition reaches its midpoint) was found to be 6.3 µM.

In the case of `CNC(=O)[C@H](Cc1ccc(OC)cc1)NC(=O)C(CC(C)C)C(CSC)C(=O)NO` (stereo partly drawn) [compound D, N^α-[2-(1-hydroxycarbamoyl-2-methylsulfanylethyl)-4-methylpentanoyl]-N,O-dimethyltyrosineamide], the IC50 is 4.1 µM.
